Laboratory results as given in PubChem BioAssay (NCI).
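Cells were grown in 96-well plates and exposed to each compound for 48 hours at five concentrations; endpoints were interpolated linearly between bracketing concentrations, or set to the highest concentration if not reached. Abbreviation: GI50, concentration required for 50% inhibition of growth. At the TGI there is no net growth.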

Tests used:
Experiment in all cases: inhibition of tumour cell growth, NCI panel, 48 h
[1] = system: NCI-H23 lung
[2] = system: SK-MEL-28 melanoma
[3] = system: SF-268 CNS
[4] = system: UACC-62 melanoma
[5] = system: KM12 colon
[6] = system: OVCAR-5 ovarian
[7] = system: HT29 colon
[8] = system: UO-31 renal
[9] = system: SF-295 CNS
[10] = system: T-47D breast

SMILES | TGI [1] [µM] | TGI [2] [µM] | TGI [3] [µM] | TGI [4] [µM] | TGI [5] [µM] | TGI [6] [µM] | TGI [7] [µM] | TGI [8] [µM] | TGI [9] [µM] | TGI [10] [µM] | GI50 [1] [µM] | GI50 [4] [µM] | GI50 [10] [µM]
N#CC(C#N)=Cc1cccc(Oc2ccccc2)c1 | 22 | 20 | 40.6 | 53.3 | 53.2 | > 100 | 49.9 | 30.8 | 45.5 |  |  |  | 
OC(c1ccco1)C(F)(F)c1nc2ccccc2o1 (stereo not given) | > 100 | > 100 | > 100 | > 100 | > 100 |  | > 100 | > 100 | > 100 | > 100 |  |  | 
COC(=O)/C(=N\NC(=S)NN)C(C(=O)C(=O)Nc1ccccc1C(N)=O)c1nc2ccccc2[nH]c1=O (stereo not given) | > 100 | > 100 | > 100 | > 100 | > 100 | > 100 |  | > 100 | > 100 |  |  |  | 
O=C1c2c(c3c4ccc(Br)cc4oc3c3[nH]c4ccccc4c23)C(=O)N1O | 6.39 |  |  | 3.94 |  |  |  |  |  | > 100 | 1.75 | 1.52 | 1.92
CC1=C(C(=O)NNC(=O)CC#N)CC(C(=O)NNC(=O)CC#N)=C(C)N1 | > 100 | > 100 | > 100 |  | > 100 | > 100 | > 100 | > 100 | > 100 | > 100 |  |  | 
NC(=O)NC(=NCc1ccccc1)NCc1ccccc1 | > 100 | > 100 | > 100 | > 100 | > 100 |  | > 100 | > 100 | > 100 |  |  |  | 
COc1cc(-c2c3c(cc4c2OCO4)[C@@H](Nc2ccc4c(c2)Cc2cc(N[C@@H]5c6cc7c(cc6C(c6cc(OC)c(O)c(OC)c6)[C@H]6C(=O)OC[C@H]56)OCO7)ccc2-4)[C@H]2COC(=O)[C@@H]2C3)cc(OC)c1O (stereo not given in full) | > 100 | 70 | > 100 |  | > 100 | 88.3 | 47.2 | > 100 | 42.3 | > 100 |  |  | 
CC1=CCC[C@H]2[C@](C)(CC3=CC(=O)C4SCCSC4C3=O)[C@@H](C)CC[C@]12C (stereo not given in full) | 31.9 | 38.4 |  | 39.9 | > 100 | 37.5 |  | 40.1 | 32.8 | > 100 |  |  | 
CCOC(=O)C1=C(C)NC(=O)N([N+](=O)[O-])C1c1ccccc1C(F)(F)F (stereo not given) | > 100 | > 100 | > 100 | > 100 |  | > 100 | > 100 | > 100 | > 100 | > 100 |  |  | 
C(=N/Nc1ccc(-c2nc3ccccc3[nH]2)cc1)/c1c(-c2ccccc2)[nH]c2ccccc12 | > 100 | > 100 | > 100 |  | > 100 |  |  | > 100 | 12.7 | > 100 |  |  | 
COC(=O)C(CCCCNC(=O)CNC(=O)OCc1ccccc1)NC(=O)C(CCCCNC(=O)CNC(=O)OCc1ccccc1)NC(=O)OCc1ccccc1 (stereo not given) | > 100 | > 100 | > 100 | > 100 |  | > 100 | > 100 | > 100 |  | > 100 |  |  | 
C=C1CC2C(=O)N(c3ccccc3)C(=O)C2CC1n1[nH]c(=O)n(Cc2ccccc2)c1=O (stereo not given) | > 100 | > 100 | > 100 | > 100 | > 100 | > 100 | > 100 | > 100 | > 100 |  |  |  | 
NC(CCSCC(F)F)C(=O)O (stereo not given) | > 100 | > 100 | > 100 | > 100 | > 100 | > 100 | > 100 | > 100 | > 100 |  |  |  | 
CC1(C)OC(CCO)CN1C(=O)OCc1ccccc1 (stereo not given) | > 100 | > 100 |  | > 100 | > 100 | > 100 |  | > 100 | > 100 |  |  |  | 
O=c1c2cc3c(=O)n(CCc4ccccc4CO)c(=O)c3cc2c(=O)n1CCc1ccccc1CO | > 100 | > 100 | > 100 | > 100 | > 100 |  | > 100 | > 100 | > 100 |  |  |  | 
NNC(=O)c1cccc2c1Oc1ccccc1S2 | > 100 | > 100 | > 100 | > 100 | > 100 |  | > 100 | > 100 | > 100 | > 100 |  |  | 
CCOC(=O)C(C)NC(=O)N(C)C12CC3CC(CC(C3)C1)C2 (stereo not given) | 441 | > 500 | > 500 | > 474 | > 281 | > 500 | > 500 | 492 | > 500 |  |  |  | 
CCC1C(=O)OCc2c1cc1n(c2=O)CCC12OCCO2 (stereo not given) | > 100 | > 100 | > 100 | > 100 | > 100 | > 100 | > 100 | > 100 | > 100 |  |  |  | 
O=c1c(Cc2ccccc2)c(-c2ccccc2)[nH]n1C1=NCCN1 | > 100 |  | > 100 | > 100 | > 100 | > 100 | 57 | > 100 | > 100 | > 100 |  |  | 
O=C(NN1C(=O)CSC1c1ccc(Cl)c(Cl)c1)c1ccncc1 (stereo not given) | > 100 | > 100 | > 100 | > 100 | > 100 | > 100 | > 100 | > 100 | > 100 |  |  |  | 
COc1cc(CCCOC2OC(COC3OCC(O)C(O)C3O)C(O)C(O)C2O)cc2cc(-c3ccc4c(c3)OCO4)oc12 (stereo not given) | > 175 | > 175 | > 175 | > 175 | > 175 | > 175 | > 175 | > 175 | > 175 |  |  |  | 
CCOC(=O)c1csc(NC(=O)CCCC#N)n1 | > 100 | > 100 |  | > 100 | > 100 | > 100 | > 100 | > 100 | > 100 | > 100 |  |  | 
O=C(c1ccccc1)[C@H]1Nc2cnccc2C2c3ccccc3CC21 (stereo not given in full) | 30.6 | 18.9 | 59.9 | > 58.8 | > 61.3 | 74.1 | 50.5 | > 40.4 | 48.3 |  |  |  | 
